How the values were obtained:
[1] = tested on: C. neoformans ATCC 32264; test: Antifungal broth microdilution (CLSI M27-A3), growth inhibition; type: cell-based, Cryptococcus neoformans; details: for MIC50 (minimum concentration to inhibit 50% of fungal growth), C. neoformans: C. neoformans ATCC 32264
Protocol: (§1) The antifungal properties of compounds 1–24 against two clinical important fungal species, C. albicans ATCC 10231 and C. neoformans ATCC 32264 were investigated. Results were expressed as the percentages of inhibition of each fungus in the range 250–3.9 μg∙mL^−1 by using the standardized microbroth dilution method M-27A3 of Clinical and Laboratory Standards Institute which assures reliable and reproducible results.
(§2) For the antifungal evaluation, standardized strains from the American Type Culture Collection (ATCC), Rockville, MD, USA, were used. The microorganisms included yeasts (Candida albicans ATCC 10231 and Cryptococcus neoformans ATCC 32264). Strains were grown on Sabouraud-chloramphenicol agar slants for 48 h at 30 °C, maintained on slopes of Sabouraud-dextrose agar (SDA, Oxoid), and subcultured every 15 days to prevent pleomorphic transformations. Inocula of cell or spore suspensions were obtained according to reported procedures and adjusted to 1–5 × 10^3 cells/spores with colony forming units (CFU)/mL [29].
(§3) Broth microdilution techniques were performed in 96-well microplates according to the Clinical and Laboratory Standards Institute Reference Method for Broth Dilution Antifungal Susceptibility Testing of Yeasts, Approved Standard M27-A3 [29]. For the assay, compound test wells (CTWs) were prepared with stock solutions of each compound in DMSO (maximum concentration ≤1%), diluted with RPMI-1640, to final concentrations of 250–3.9 μg∙mL^−1. An inoculum suspension (100 μL) was added to each well (final volume in the well = 200 μL). A growth control well (GCW) (containing medium, inoculum, and the same amount of DMSO used in a CTW, but compound-free) and a sterility control well (SCW) (sample, medium, and sterile water instead of inoculum) were included for each fungus tested. Microtiter trays were incubated in a moist, dark chamber at 30 °C for 48 h for both yeasts. Microplates were read in a VERSA Max microplate reader (Molecular Devices, Sunnyvale, CA, USA). Amphotericin B (Sigma-Aldrich) was used as positive control. Tests were performed in triplicate. Reduction of growth for each compound concentration was calculated as follows: % of inhibition = 100 − (OD 405 CTW − OD 405 SCW)/(OD 405 GCW − OD 405 SCW). The means ± SEM were the results of triplicate tests. Three endpoints were defined from the assay explained above and the dose-response curves. Minimum Inhibitory concentration (MIC) resulting in total fungal growth inhibition was named MIC100 while MIC50 was defined as the minimum concentration that inhibits 50% of the fungal growth.

[2] = tested on: C. albicans ATCC 10231; test: as above; type: cell-based, Candida albicans; details: for MIC50 (minimum concentration to inhibit 50% of fungal growth), C. albicans: C. albicans ATCC 10231
Protocol: as §1, §2, §3

MIC50 (minimum concentration to inhibit 50% of fungal growth), C. neoformans [1] [µg/mL]	MIC50 (minimum concentration to inhibit 50% of fungal growth), C. albicans [2] [µg/mL]	SMILES	Inhibition percentage against C. neoformans ATCC 32264 ([1]; 3.9 μg∙mL^−1, 48 h) [%]	Inhibition percentage against C. neoformans ATCC 32264 ([1]; 7.8 μg∙mL^−1, 48 h) [%]	Inhibition percentage against C. neoformans ATCC 32264 ([1]; 15.6 μg∙mL^−1, 48 h) [%]	Inhibition percentage against C. neoformans ATCC 32264 ([1]; 31.2 μg∙mL^−1, 48 h) [%]	Inhibition percentage against C. neoformans ATCC 32264 ([1]; 62.5 μg∙mL^−1, 48 h) [%]	Inhibition percentage against C. neoformans ATCC 32264 ([1]; 125 μg∙mL^−1, 48 h) [%]	Inhibition percentage against C. neoformans ATCC 32264 ([1]; 250 μg∙mL^−1, 48 h) [%]	Inhibition percentage against C. albicans ATCC 10231 ([2]; 3.9 μg∙mL^−1, 48 h) [%]	Inhibition percentage against C. albicans ATCC 10231 ([2]; 7.8 μg∙mL^−1, 48 h) [%]	Inhibition percentage against C. albicans ATCC 10231 ([2]; 15.6 μg∙mL^−1, 48 h) [%]	Inhibition percentage against C. albicans ATCC 10231 ([2]; 62.5 μg∙mL^−1, 48 h) [%]	Inhibition percentage against C. albicans ATCC 10231 ([2]; 125 μg∙mL^−1, 48 h) [%]	Inhibition percentage against C. albicans ATCC 10231 ([2]; 250 μg∙mL^−1, 48 h) [%]	Inhibition percentage against C. albicans ATCC 10231 ([2]; 31. μg∙mL^−1, 48 h) [%]
>250	>250	CC(C)c1cc2c(c(OC(=O)CCCc3cn(Cc4ccc([N+](=O)[O-])cc4)nn3)c1OC(=O)CCCc1cn(Cc3ccc([N+](=O)[O-])cc3)nn1)C13CCCC(C)(C)C1CC2OC3=O (stereo not drawn) [Compound 24, (7β)-11,12-O-(4-(1-(4-nitrobenzyl)-1H-1,2,3-triazol-4-yl)-butanoyloxy)-7,20-epoxyabieta-8,11,13-trien-20-one]	4.9 ± 1.4	15.4 ± 0.1	21.0 ± 0.1	24.3 ± 0.5	27.3 ± 0.7	31.7 ± 1.6	45.8 ± 2.0	0.0	0.0	0.0	4.8 ± 0.6	14.3 ± 2.0	29.8 ± 1.9	3.4 ± 0.5
>250	>250	CC(C)c1cc2c(c(OC(=O)CCc3cn(Cc4ccc(Br)cc4)nn3)c1OC(=O)CCc1cn(Cc3ccc(Br)cc3)nn1)C13CCCC(C)(C)C1CC2OC3=O (stereo not drawn) [Compound 21, (7β)-11,12-O-(3-(1-(4-bromobenzyl)-1H-1,2,3-triazol-4-yl)-propanoyloxy)-7,20-epoxyabieta-8,11,13-trien-20-one]	1.2 ± 0.6	6.7 ± 0.3	17.9 ± 0.2	18.9 ± 0.7	19.2 ± 0.2	28.8 ± 0.4	40.0 ± 0.3	0.0	0.0	2.6 ± 0.6	4.4 ± 1.3	6.6 ± 1.1	8.6 ± 2.0	3.5 ± 0.6

Further lines, the molecule ahead of its results:

SMILES	MIC50 (minimum concentration to inhibit 50% of fungal growth), C. neoformans [1] [µg/mL]	MIC50 (minimum concentration to inhibit 50% of fungal growth), C. albicans [2] [µg/mL]	Inhibition percentage against C. neoformans ATCC 32264 ([1]; 3.9 μg∙mL^−1, 48 h) [%]	Inhibition percentage against C. neoformans ATCC 32264 ([1]; 7.8 μg∙mL^−1, 48 h) [%]	Inhibition percentage against C. neoformans ATCC 32264 ([1]; 15.6 μg∙mL^−1, 48 h) [%]	Inhibition percentage against C. neoformans ATCC 32264 ([1]; 31.2 μg∙mL^−1, 48 h) [%]	Inhibition percentage against C. neoformans ATCC 32264 ([1]; 62.5 μg∙mL^−1, 48 h) [%]	Inhibition percentage against C. neoformans ATCC 32264 ([1]; 125 μg∙mL^−1, 48 h) [%]	Inhibition percentage against C. neoformans ATCC 32264 ([1]; 250 μg∙mL^−1, 48 h) [%]	Inhibition percentage against C. albicans ATCC 10231 ([2]; 3.9 μg∙mL^−1, 48 h) [%]	Inhibition percentage against C. albicans ATCC 10231 ([2]; 7.8 μg∙mL^−1, 48 h) [%]	Inhibition percentage against C. albicans ATCC 10231 ([2]; 15.6 μg∙mL^−1, 48 h) [%]	Inhibition percentage against C. albicans ATCC 10231 ([2]; 62.5 μg∙mL^−1, 48 h) [%]	Inhibition percentage against C. albicans ATCC 10231 ([2]; 125 μg∙mL^−1, 48 h) [%]	Inhibition percentage against C. albicans ATCC 10231 ([2]; 250 μg∙mL^−1, 48 h) [%]	Inhibition percentage against C. albicans ATCC 10231 ([2]; 31. μg∙mL^−1, 48 h) [%]
CC(C)c1cc2c(c(OC(=O)CCc3cn(Cc4ccccc4)nn3)c1OC(=O)CCc1cn(Cc3ccccc3)nn1)C13CCCC(C)(C)C1CC2OC3=O (stereo not drawn) [Compound 19, (7β)-11,12-O-(3-(1-benzyl-1H-1,2,3-triazol-4-yl)-propanoyloxy)-7,20-epoxyabieta-8,11,13-trien-20-one]	>250	>250	0.0	0.0	0.0	0.0	3.3 ± 1.1	7.1 ± 2.0	31.3 ± 1.6	0.7 ± 0.3	3.2 ± 0.1	3.2 ± 0.1	11.9 ± 1.0	21.1 ± 1.0	37.8 ± 0.5	4.6 ± 1.8
COC(=O)C12CCCC(C)(C)C1CCc1cc(C(C)C)c(OC(=O)CCCc3cn(CSc4ccccc4)nn3)c(OC(=O)CCCc3cn(CSc4ccccc4)nn3)c12 (stereo not drawn) [Compound 10, Methyl(11,12-O-(4-(((1-phenylthio)methyl)-1H-1,2,3-triazol-4-yl)-butanoyloxy)-abieta-8,11,13-triene)-20-oate]	250	>250	0.0	11.3 ± 0.5	14.4 ± 0.8	18.6 ± 1.5	19.1 ± 1.8	42.9 ± 2.0	63.9 ± 2.9	1.3 ± 1.3	2.8 ± 0.1	3.9 ± 0.9	10.1 ± 0.9	18.8 ± 0.4	35.0 ± 0.8	5.1 ± 1.3
CC(C)c1cc2c(c(OC(=O)CCCc3cn(Cc4ccccc4)nn3)c1OC(=O)CCCc1cn(Cc3ccccc3)nn1)C13CCCC(C)(C)C1CC2OC3=O (stereo not drawn) [Compound 20, (7β)-11,12-O-(4-(1-benzyl-1H-1,2,3-triazol-4-yl)-butanoyloxy)-7,20-epoxyabieta-8,11,13-trien-20-one]	>250	>250	0.0	0.0	0.0	2.7 ± 2.7	10.4 ± 0.2	14.5 ± 1.2	22.0 ± 1.0	0.7 ± 0.1	1.6 ± 0.2	3.0 ± 0.4	10.9 ± 1.6	21.4 ± 3.4	34.5 ± 0.5	4.3 ± 0.4
COC(=O)C12CCCC(C)(C)C1CCc1cc(C(C)C)c(OC(=O)CCc3cn(CSc4ccccc4)nn3)c(OC(=O)CCc3cn(CSc4ccccc4)nn3)c12 (stereo not drawn) [Compound 9, Methyl(11,12-O-(3-(((1-phenylthio)methyl)-1H-1,2,3-triazol-4-yl)-propanoyloxy)-abieta-8,11,13-triene)-20-oate]	125	>250	0.0	5.1 ± 0.7	7.3 ± 0.4	13.7 ± 1.5	23.4 ± 1.3	53.6 ± 2.6	62.4 ± 3.8	0.0	0.0	3.5 ± 0.3	9.4 ± 0.7	19.2 ± 0.1	15.9 ± 1.2	4.7 ± 0.1

— publication PMC6272684, “Synthesis, Antiproliferative and Antifungal Activities of 1,2,3-Triazole-Substituted Carnosic Acid and Carnosol Derivatives” (Molecules, 2015)
